Laboratory results from the supplement of paper PMC10307832.

Experiments:
Assay in all cases: relative viability (nuclei count vs DMSO), 5 days (fraction); higher = more cells survive
[1] = compound: C[C@]12O[C@H](C[C@]1(O)CO)n1c3ccccc3c3c4c(c5c6ccccc6n2c5c31)CNC4=O [Lestaurtinib] + O=C(c1cc(Cc2n[nH]c(=O)c3ccccc23)ccc1F)N1CCN(C(=O)C2CC2)CC1 [Olaparib] (partner 8 µM)
How it was run: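 Five library-drug doses in √10 steps were combined with a fixed anchor-drug dose, or a single drug was given alone, by pin tool to lung cancer cell lines in 1536-well plates the day after seeding. Nuclei were stained and counted after 5 days. Relative viability is the nuclei count in treated wells over that in vehicle wells, taken as the median of duplicate plates.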

[2] = compound: C[C@]12O[C@H](C[C@]1(O)CO)n1c3ccccc3c3c4c(c5c6ccccc6n2c5c31)CNC4=O [Lestaurtinib]
How it was run: (§1)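 MetaXpress counted nuclei in 4× images of lung cancer cell lines that had been fixed, permeabilised and Hoechst-stained in one step. Before that, cells in 1536-well plates were kept overnight at 37 °C, pinned with five √10-spaced library-drug doses on vehicle-anchored plates, and cultured 5 days without medium change. Viability takes treated-well nuclei over vehicle-well nuclei and uses the median across plates. Plates were accepted only at control CV below 25% and at least one doubling.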

[3] = compound: C1/C(=C\C2=CC=CS2)/C(=O)/C(=C/C3=CC=CS3)/C1
How it was run: as §1

[4] = compound: C1=CC(=CC=C1C2=CC(=C(S2)NC(=O)N)C(=O)N)F [TPCA-1]
How it was run: as §1

UMC-11 was tested, and the relative viability ([1]; first compound 0.005 µM) was 0.402, the relative viability ([1]; first compound 0.01581 µM) was 0.466 and the relative viability ([1]; first compound 0.05 µM) was 0.384. The relative viability ([1]; first compound 0.1581 µM) was 0.273, the relative viability ([1]; first compound 0.5 µM) was 0.171 and the relative viability ([2]; 0.005 µM) was 1.01. For the same cell line, the relative viability ([2]; 0.01581 µM) was 0.958, the relative viability ([2]; 0.05 µM) was 0.615 and the relative viability ([2]; 0.1581 µM) was 0.353. The relative viability ([2]; 0.5 µM) was 0.19, the relative viability ([3]; 0.2 µM) was 0.975 and the relative viability ([3]; 0.6325 µM) was 0.993. It also gave a relative viability ([3]; 2 µM) of 0.954, a relative viability ([3]; 6.325 µM) of 0.711 and a relative viability ([3]; 20 µM) of 0.941. It also gave a relative viability ([4]; 0.04 µM) of 1.03, a relative viability ([4]; 0.1265 µM) of 0.87 and a relative viability ([4]; 0.4 µM) of 1.03. For the same cell line, the relative viability ([4]; 1.265 µM) was 0.976 and the relative viability ([4]; 4 µM) was 0.374.
